Experimental findings from ChEMBL document CHEMBL1133531, “Carbonic anhydrase inhibitors: perfluoroalkyl/aryl-substituted derivatives of aromatic/heterocyclic sulfonamides as topical intraocular pressure-lowering agents with prolonged duration of action” (J Med Chem, 2000) are described below.

The target of one test is T1, Carbonic anhydrase 4 (Bos taurus, UniProt Q95323).
T1 sequence (Q95323 whole entry): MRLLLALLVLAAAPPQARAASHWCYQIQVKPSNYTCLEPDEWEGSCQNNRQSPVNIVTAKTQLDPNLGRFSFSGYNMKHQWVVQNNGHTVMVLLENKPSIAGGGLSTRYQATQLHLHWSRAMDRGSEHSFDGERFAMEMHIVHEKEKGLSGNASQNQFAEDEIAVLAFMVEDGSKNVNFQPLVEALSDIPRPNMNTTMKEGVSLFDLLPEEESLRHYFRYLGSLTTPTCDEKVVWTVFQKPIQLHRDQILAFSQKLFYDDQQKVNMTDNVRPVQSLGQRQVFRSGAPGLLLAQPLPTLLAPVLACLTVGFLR

The target of a further test is Carbonic anhydrase 1 (Homo sapiens, UniProt P00915).
Chain of Carbonic anhydrase 1 (P00915 whole entry): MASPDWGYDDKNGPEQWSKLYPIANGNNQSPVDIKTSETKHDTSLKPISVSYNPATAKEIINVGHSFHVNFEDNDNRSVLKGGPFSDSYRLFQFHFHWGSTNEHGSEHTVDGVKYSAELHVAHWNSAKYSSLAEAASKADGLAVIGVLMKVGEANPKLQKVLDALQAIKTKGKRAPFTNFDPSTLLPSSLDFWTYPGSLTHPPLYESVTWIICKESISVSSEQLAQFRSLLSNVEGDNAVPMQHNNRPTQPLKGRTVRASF

Description for Carbonic anhydrase 1: Inhibition of human recombinant carbonic anhydrase I (CA1)
Description for Carbonic anhydrase 4: Inhibition of bovine carbonic anhydrase IV (CA4) from bovine lung microsomes

As to `NS(=O)(=O)c1ccc(CCNC(=O)c2c(F)c(F)c(F)c(F)c2F)cc1`, the results for the inhibition constant (Ki) at Carbonic anhydrase 4 and at Carbonic anhydrase 1 were 310 nM and 900 nM, respectively.

Regarding `NS(=O)(=O)c1ccccc1NC(=O)C(F)(F)C(F)(F)C(F)(F)C(F)(F)C(F)(F)C(F)(F)C(F)(F)C(F)(F)F`, the Ki at Carbonic anhydrase 4 turned out to be 1500 nM; at Carbonic anhydrase 1, 1800 nM.

For the molecule `NS(=O)(=O)c1ccc(COC(=O)c2c(F)c(F)c(F)c(F)c2F)cc1`, the Ki on Carbonic anhydrase 4 was 410 nM; at Carbonic anhydrase 1, 1200 nM.

As to `NS(=O)(=O)c1nnc(NS(=O)(=O)c2ccc(NS(=O)(=O)c3c(F)c(F)c(F)c(F)c3F)cc2)s1`, the figures for the Ki at Carbonic anhydrase 4 and on Carbonic anhydrase 1 were 8 nM and 24 nM, respectively.

For `NS(=O)(=O)c1ccc(NS(=O)(=O)c2c(F)c(F)c(F)c(F)c2F)c(Br)c1`, the Ki was 550 nM at Carbonic anhydrase 4 and 1500 nM at Carbonic anhydrase 1.

Turning to `NS(=O)(=O)c1nnc(NS(=O)(=O)c2ccc(NC(=O)c3c(F)c(F)c(F)c(F)c3F)cc2)s1`, the Ki at Carbonic anhydrase 4 was determined as 32 nM; on Carbonic anhydrase 1, 1500 nM.

`Cn1nc(S(N)(=O)=O)s/c1=N/S(=O)(=O)c1ccc(NS(=O)(=O)c2c(F)c(F)c(F)c(F)c2F)cc1`: the figures for the inhibition constant (Ki) at Carbonic anhydrase 4 and on Carbonic anhydrase 1 were 9 nM and 21 nM, respectively.

Consider `NS(=O)(=O)c1nc2ccc(OS(=O)(=O)C(F)(F)C(F)(F)C(F)(F)C(F)(F)C(F)(F)C(F)(F)C(F)(F)C(F)(F)F)cc2s1`, for which the Ki stood at 8 nM on Carbonic anhydrase 4 and 28 nM on Carbonic anhydrase 1.

As for `NS(=O)(=O)c1ccc(NC(=O)c2c(F)c(F)c(F)c(F)c2F)c(Cl)c1`, the Ki at Carbonic anhydrase 4 is 590 nM; on Carbonic anhydrase 1 it was 1080 nM.

Regarding `NS(=O)(=O)c1nc2ccc(OCCOS(=O)(=O)c3c(F)c(F)c(F)c(F)c3F)cc2s1`, the Ki worked out at 7 nM on Carbonic anhydrase 4 and 18 nM on Carbonic anhydrase 1.

`NS(=O)(=O)c1cc(S(N)(=O)=O)c(NS(=O)(=O)c2c(F)c(F)c(F)c(F)c2F)c(Cl)c1Cl`: the Ki on Carbonic anhydrase 4 came out at 142 nM; at Carbonic anhydrase 1 it was 1500 nM.

For the molecule `NS(=O)(=O)c1ccc(CCNS(=O)(=O)C(F)(F)F)cc1`, the values for the Ki at Carbonic anhydrase 4 and on Carbonic anhydrase 1 were 50000 nM and 81300 nM, respectively.

Take `NS(=O)(=O)c1ccc(NS(=O)(=O)c2ccc(NS(=O)(=O)C(F)(F)C(F)(F)C(F)(F)C(F)(F)F)cc2)cc1`: the Ki was 31 nM on Carbonic anhydrase 4 and 3600 nM on Carbonic anhydrase 1.

In the case of `NS(=O)(=O)c1ccc(NS(=O)(=O)c2ccc(NC(=O)C(F)(F)C(F)(F)C(F)(F)C(F)(F)C(F)(F)C(F)(F)C(F)(F)C(F)(F)F)cc2)cc1`, the figures for the Ki at Carbonic anhydrase 4 and at Carbonic anhydrase 1 were 25 nM and 2400 nM, respectively.

`NS(=O)(=O)c1cccc(NS(=O)(=O)C(F)(F)C(F)(F)C(F)(F)C(F)(F)C(F)(F)C(F)(F)C(F)(F)C(F)(F)F)c1`: the figures for the Ki on Carbonic anhydrase 4 and on Carbonic anhydrase 1 were 870 nM and 1400 nM, respectively.

Consider `NS(=O)(=O)c1ccc(Nc2ccnc(NS(=O)(=O)C(F)(F)F)n2)cc1`, for which the values for the inhibition constant (Ki) on Carbonic anhydrase 4 and on Carbonic anhydrase 1 were 39 nM and 8000 nM, respectively.

Take `NS(=O)(=O)c1ccc(COS(=O)(=O)C(F)(F)C(F)(F)C(F)(F)C(F)(F)C(F)(F)C(F)(F)C(F)(F)C(F)(F)F)cc1`: the Ki at Carbonic anhydrase 4 was 10900 nM; on Carbonic anhydrase 1, 15000 nM.

For the molecule `NS(=O)(=O)c1nnc(NS(=O)(=O)C(F)(F)F)s1`, the Ki on Carbonic anhydrase 4 was determined as 600 nM; at Carbonic anhydrase 1, 59800 nM.

Consider `NS(=O)(=O)c1cccc(NS(=O)(=O)c2ccc(NS(=O)(=O)C(F)(F)C(F)(F)C(F)(F)C(F)(F)C(F)(F)C(F)(F)C(F)(F)C(F)(F)F)cc2)c1`, for which the results for the Ki at Carbonic anhydrase 4 and on Carbonic anhydrase 1 were 33 nM and 3600 nM, respectively.

Turning to `NS(=O)(=O)c1ccc(NS(=O)(=O)C(F)(F)C(F)(F)C(F)(F)C(F)(F)F)c(F)c1`, the Ki on Carbonic anhydrase 4 was 200 nM; on Carbonic anhydrase 1, 1070 nM.

Regarding `NS(=O)(=O)c1ccc(Nc2ccnc(NS(=O)(=O)C(F)(F)C(F)(F)C(F)(F)C(F)(F)C(F)(F)C(F)(F)C(F)(F)C(F)(F)F)n2)cc1`, the Ki at Carbonic anhydrase 4 turned out to be 34 nM; at Carbonic anhydrase 1 it was 4500 nM.

As to `NS(=O)(=O)c1nc2ccc(NS(=O)(=O)C(F)(F)F)cc2s1`, the Ki at Carbonic anhydrase 4 turned out to be 8 nM; at Carbonic anhydrase 1 it was 70 nM.

As for `NS(=O)(=O)c1ccc(NNS(=O)(=O)c2c(F)c(F)c(F)c(F)c2F)cc1`, the Ki was found to be 500 nM on Carbonic anhydrase 4 and 1000 nM at Carbonic anhydrase 1.

With `NS(=O)(=O)c1ccc(NC(=O)C(F)(F)C(F)(F)C(F)(F)C(F)(F)C(F)(F)C(F)(F)C(F)(F)C(F)(F)F)c(F)c1`, the Ki worked out at 550 nM on Carbonic anhydrase 4 and 1400 nM on Carbonic anhydrase 1.

For the molecule `NS(=O)(=O)c1ccc(CCNS(=O)(=O)C(F)(F)C(F)(F)C(F)(F)C(F)(F)F)cc1`, the Ki at Carbonic anhydrase 4 was 240 nM; on Carbonic anhydrase 1 it was 12500 nM.

For the molecule `NS(=O)(=O)c1cccc(NS(=O)(=O)c2c(F)c(F)c(F)c(F)c2F)c1`, the results for the Ki on Carbonic anhydrase 4 and at Carbonic anhydrase 1 were 500 nM and 1100 nM, respectively.

As for `NS(=O)(=O)c1ccc(NS(=O)(=O)C(F)(F)C(F)(F)C(F)(F)C(F)(F)F)c(Br)c1`, the Ki at Carbonic anhydrase 4 came out at 900 nM; at Carbonic anhydrase 1 it was 20300 nM.

Consider `NS(=O)(=O)c1cccc(NC(=O)C(F)(F)C(F)(F)C(F)(F)C(F)(F)C(F)(F)C(F)(F)C(F)(F)C(F)(F)F)c1`, for which the values for the Ki on Carbonic anhydrase 4 and on Carbonic anhydrase 1 were 935 nM and 1600 nM, respectively.

Turning to `NS(=O)(=O)c1cc(S(N)(=O)=O)c(NS(=O)(=O)C(F)(F)F)cc1Cl`, the Ki came to 150 nM on Carbonic anhydrase 4 and 550 nM at Carbonic anhydrase 1.

For the molecule `NS(=O)(=O)c1ccc(NS(=O)(=O)c2c(F)c(F)c(F)c(F)c2F)c(I)c1`, the Ki on Carbonic anhydrase 4 amounted to 675 nM; on Carbonic anhydrase 1, 1760 nM.

Turning to `NS(=O)(=O)c1ccc(CNS(=O)(=O)C(F)(F)C(F)(F)C(F)(F)C(F)(F)C(F)(F)C(F)(F)C(F)(F)C(F)(F)F)cc1`, the Ki amounted to 705 nM on Carbonic anhydrase 4 and 1000 nM at Carbonic anhydrase 1.

On to `Cn1nc(S(N)(=O)=O)s/c1=N/S(=O)(=O)c1ccc(NS(=O)(=O)C(F)(F)C(F)(F)C(F)(F)C(F)(F)C(F)(F)C(F)(F)C(F)(F)C(F)(F)F)cc1`, for which the Ki stood at 25 nM on Carbonic anhydrase 4 and 1100 nM at Carbonic anhydrase 1.

On to `Cn1nc(S(N)(=O)=O)sc1=NS(=O)(=O)C(F)(F)C(F)(F)C(F)(F)C(F)(F)C(F)(F)C(F)(F)C(F)(F)C(F)(F)F`, for which the Ki amounted to 14 nM on Carbonic anhydrase 4 and 380 nM on Carbonic anhydrase 1.

Consider `NS(=O)(=O)c1ccc(NNC(=O)C(F)(F)C(F)(F)C(F)(F)C(F)(F)C(F)(F)C(F)(F)C(F)(F)C(F)(F)F)cc1`, for which the Ki is 840 nM on Carbonic anhydrase 4 and 1850 nM on Carbonic anhydrase 1.

For the molecule `NS(=O)(=O)c1nc2ccc(NS(=O)(=O)C(F)(F)C(F)(F)C(F)(F)C(F)(F)F)cc2s1`, the Ki on Carbonic anhydrase 4 was determined as 6 nM; on Carbonic anhydrase 1, 54 nM.

Regarding `NS(=O)(=O)c1ccc(COC(=O)C(F)(F)C(F)(F)C(F)(F)C(F)(F)C(F)(F)C(F)(F)C(F)(F)C(F)(F)F)cc1`, the Ki was 11000 nM on Carbonic anhydrase 4 and 15000 nM on Carbonic anhydrase 1.

Consider `Cn1nc(S(N)(=O)=O)s/c1=N/C(=O)c1c(F)c(F)c(F)c(F)c1F`, for which the Ki at Carbonic anhydrase 4 worked out at 8 nM; on Carbonic anhydrase 1 it was 270 nM.

For `NS(=O)(=O)c1nnc(NC(=O)CCNC(=O)c2c(F)c(F)c(F)c(F)c2F)s1`, the figures for the inhibition constant Ki on Carbonic anhydrase 4 and at Carbonic anhydrase 1 were 10 nM and 300 nM, respectively.

Consider `NS(=O)(=O)c1nnc(NS(=O)(=O)c2ccc(NS(=O)(=O)C(F)(F)C(F)(F)C(F)(F)C(F)(F)F)cc2)s1`, for which the Ki at Carbonic anhydrase 4 was 17 nM; at Carbonic anhydrase 1 it was 900 nM.

On to `NS(=O)(=O)c1ccc(CCOS(=O)(=O)C(F)(F)C(F)(F)C(F)(F)C(F)(F)F)cc1`, for which the Ki at Carbonic anhydrase 4 amounted to 9200 nM; at Carbonic anhydrase 1 it was 20900 nM.

In the case of `NS(=O)(=O)c1cc(S(N)(=O)=O)c(NS(=O)(=O)C(F)(F)C(F)(F)C(F)(F)C(F)(F)F)cc1Cl`, the Ki on Carbonic anhydrase 4 stood at 43 nM; at Carbonic anhydrase 1, 400 nM.

On to `Cn1nc(S(N)(=O)=O)s/c1=N/C(=O)C(F)(F)C(F)(F)C(F)(F)C(F)(F)C(F)(F)C(F)(F)C(F)(F)C(F)(F)F`, for which the Ki on Carbonic anhydrase 4 is 18 nM; on Carbonic anhydrase 1, 330 nM.

For the molecule `NS(=O)(=O)c1ccc(NNC(=O)c2c(F)c(F)c(F)c(F)c2F)cc1`, the Ki is 980 nM at Carbonic anhydrase 4 and 1500 nM at Carbonic anhydrase 1.

On to `NS(=O)(=O)c1cc(S(N)(=O)=O)c(NC(=O)c2c(F)c(F)c(F)c(F)c2F)c(Cl)c1Cl`, for which the Ki was 420 nM on Carbonic anhydrase 4 and 1900 nM on Carbonic anhydrase 1.

Take `NS(=O)(=O)c1nnc(NC(=O)C(F)(F)C(F)(F)C(F)(F)C(F)(F)C(F)(F)C(F)(F)C(F)(F)C(F)(F)F)s1`: the values for the inhibitory constant (Ki) at Carbonic anhydrase 4 and on Carbonic anhydrase 1 were 13 nM and 300 nM, respectively.

With `NS(=O)(=O)c1cccc(NS(=O)(=O)c2ccc(NC(=O)c3c(F)c(F)c(F)c(F)c3F)cc2)c1`, the inhibition constant Ki is 55 nM on Carbonic anhydrase 4 and 8000 nM at Carbonic anhydrase 1.

As for `NS(=O)(=O)c1cc(S(N)(=O)=O)c(NC(=O)C(F)(F)C(F)(F)C(F)(F)C(F)(F)C(F)(F)C(F)(F)C(F)(F)C(F)(F)F)c(Cl)c1Cl`, the Ki was 830 nM on Carbonic anhydrase 4 and 7000 nM on Carbonic anhydrase 1.

`NS(=O)(=O)c1ccc(CCOS(=O)(=O)c2c(F)c(F)c(F)c(F)c2F)cc1`: the Ki came to 103 nM on Carbonic anhydrase 4 and 300 nM on Carbonic anhydrase 1.

Consider `NS(=O)(=O)c1cc(S(N)(=O)=O)c(NS(=O)(=O)c2c(F)c(F)c(F)c(F)c2F)cc1Cl`, for which the Ki amounted to 26 nM on Carbonic anhydrase 4 and 300 nM on Carbonic anhydrase 1.

`NS(=O)(=O)c1nc2ccc(NC(=O)C(F)(F)C(F)(F)C(F)(F)C(F)(F)C(F)(F)C(F)(F)C(F)(F)C(F)(F)F)cc2s1`: the inhibition constant Ki stood at 9 nM at Carbonic anhydrase 4 and 45 nM on Carbonic anhydrase 1.

Consider `NS(=O)(=O)c1ccc(NC(=O)C(F)(F)C(F)(F)C(F)(F)C(F)(F)C(F)(F)C(F)(F)C(F)(F)C(F)(F)F)c(Br)c1`, for which the inhibition constant Ki was determined as 620 nM on Carbonic anhydrase 4 and 2500 nM at Carbonic anhydrase 1.

Regarding `NS(=O)(=O)c1nc2ccc(OC(=O)C(F)(F)C(F)(F)C(F)(F)C(F)(F)C(F)(F)C(F)(F)C(F)(F)C(F)(F)F)cc2s1`, the inhibition constant (Ki) at Carbonic anhydrase 4 was found to be 14 nM; at Carbonic anhydrase 1, 37 nM.

On to `NS(=O)(=O)c1ccc(NS(=O)(=O)C(F)(F)F)c(Cl)c1`, for which the Ki came to 42000 nM on Carbonic anhydrase 4 and 180000 nM on Carbonic anhydrase 1.

As to `NS(=O)(=O)c1ccccc1NS(=O)(=O)C(F)(F)C(F)(F)C(F)(F)C(F)(F)C(F)(F)C(F)(F)C(F)(F)C(F)(F)F`, the values for the Ki on Carbonic anhydrase 4 and on Carbonic anhydrase 1 were 1200 nM and 1500 nM, respectively.
